Blank lines part the entries; values can stand above or below the compound they belong to. Ends that are not written are not given here.
How the values were obtained:
[1] = system: A549 human lung cancer tumor; assay: Tissue distribution in lung tumor-bearing nude mice; type: in vivo
Experimental: Female athymic nude mice (NCr-nu/nu, NCI, Bethasda, Md.) were inoculated with human lung cancer cells (A549 tumor cell line, 3×10^6 cells/mouse, intramuscular) by one author in the mid-dorsal region. After the tumor reached 6 mm, separate biodistribution studies using ^99mTc-EC-DG and 18F-FDG were conducted. Each received ^99mTc-EC-DG or 18F-FDG intravenously (n=3/time point). The injection activity was 1-3 μCi/mouse. The injected mass of ^99mTc-EC-DG was 0.2 mg/rodent.

[2] = In vitro cell culture of ^99mTc-EC-DG with or without transition chelators; type: cell-based
Source text: It may also be important to include an antioxidant and a transition chelator in the composition to prevent oxidation of the ethylenedicysteine. For example, the antioxidant may be vitamin C (ascorbic acid). However, other antioxidants known to those of ordinary skill in the art, such as tocopherol, pyridoxine, thiamine, or rutin, may also be used. Any transition chelator known to those of ordinary skill in the art may be used in conjunction with the present invention. Examples of transition chelators include glucoheptonate, gluconate, glucarate, citrate, and tartarate.

[3] = system: RBA CRL-1747 mammary tumor; assay: Biodistribution in breast (mammary) tumor-bearing rats; type: in vivo, rat; conditions: iv
Experimental: (§1) Biodistribution was assessed in mammary tumor-bearing rats (RBA CRL-1747, n=3/time interval, iv). Studies were performed 14 to 17 days after implantation when tumors reached approximately 1 cm in diameter. Following administration of the radiotracer, rats were sacrificed at 0.5-4 hrs. The selected tissues were excised, weighed and counted for radioactivity by using a gamma counter (Packard Instruments, Downers Grove, Ill.). The biodistribution of tracer in each sample was calculated as percentage of the injected dose per gram of tissue wet weight (% ID/g).
as §1, with “breast” for “mammary”

[4] = system: RBA CRL-1747 (breast cancer cells); assay: In vitro cellular uptake compared to ^99mTc-EC in breast cancer cells; type: cell-based, rat; conditions: 0.5-2 hrs
Experimental: An in vitro cell culture using tumor cells was incubated with ^99mTc-EC-celecoxib (4 μCi/50,000 cells/well) at 0.5-2 hrs in RBA CRL-1747.
An in vitro cell culture using tumor cells was incubated with ^99mTc-EC-LH antibody (4 μCi/50,000 cells/well) at 0.5-2 hrs in RBA CRL-1747 (breast cancer cells).
An in vitro cell culture using tumor cells was incubated with ^99mTc-EC-carnitine (4-6 μCi/50,000 cells/well) at 0.5-2 hrs in breast cancer cells.

[5] = system: human prostate cancer cells (LNCap, PC-3); assay: In vitro cellular uptake in human prostate cancer cells; type: cell-based; conditions: 0.5-2 hrs, LNCap and PC-3
Experimental: An in vitro cell culture using tumor cells was incubated with ^99mTc-EC-LHRH (4-6 μCi/100,000 cells/well) at 0.5-2 hrs in human prostate cancer cells. Two types cell lines were used. They are either sensitive to androgen (LNCap) or unresponsive to androgen (PC-3) therapy.

Tumor/Blood ([1]; 30 min): 0.499 ± 0.022 | Tumor/Lung ([1]; 30 min): 0.769 ± 0.047 | Tumor/Muscle ([1]; 30 min): 3.352 ± 0.749 | Tumor/Blood ([1]; 2 h): 0.424 ± 0.022 | Tumor/Lung ([1]; 2 h): 0.587 ± 0.046 | Tumor/Muscle ([1]; 2 h): 2.754 ± 0.120 | Tumor/Blood ([1]; 4 h): 0.502 ± 0.120 | Tumor/Lung ([1]; 4 h): 0.640 ± 0.120 | Tumor/Muscle ([1]; 4 h): 2.795 ± 0.982 | stability with or without transition chelators (gluconate and glucarate) [2]: does not interfere with the stability
Compound: O=C(N[C@H]1C(O)O[C@H](CO)[C@@H](O)[C@@H]1O)[C@@H]1C[S][Tc]23(=[O])[S]C[C@@H](C(=O)N[C@H]4C(O)O[C@H](CO)[C@@H](O)[C@@H]4O)[N]2CC[N]13 (some centres unmarked) [^99mTc-EC-DG]
Blood ([1]; 30 min): 1.607 ± 0.389 % of injected dose per gram of tissue weight | Brain ([1]; 30 min): 0.058 ± 0.008 % of injected dose per gram of tissue weight | Heart ([1]; 30 min): 0.611 ± 0.193 % of injected dose per gram of tissue weight | Intestine ([1]; 30 min): 0.510 ± 0.093 % of injected dose per gram of tissue weight | Kidney ([1]; 30 min): 6.726 ± 1.842 % of injected dose per gram of tissue weight | Liver ([1]; 30 min): 5.674 ± 2.089 % of injected dose per gram of tissue weight | Lung ([1]; 30 min): 1.048 ± 0.259 % of injected dose per gram of tissue weight | Muscle ([1]; 30 min): 0.264 ± 0.072 % of injected dose per gram of tissue weight | Spleen ([1]; 30 min): 3.240 ± 1.709 % of injected dose per gram of tissue weight | Stomach ([1]; 30 min): 0.540 ± 0.113 % of injected dose per gram of tissue weight | Thyroid ([1]; 30 min): 0.929 ± 0.212 % of injected dose per gram of tissue weight | Tumor ([1]; 30 min): 0.787 ± 0.163 % of injected dose per gram of tissue weight | Blood ([1]; 2 h): 0.977 ± 0.267 % of injected dose per gram of tissue weight | Brain ([1]; 2 h): 0.042 ± 0.006 % of injected dose per gram of tissue weight | Heart ([1]; 2 h): 0.336 ± 0.080 % of injected dose per gram of tissue weight | Intestine ([1]; 2 h): 0.417 ± 0.110 % of injected dose per gram of tissue weight | Kidney ([1]; 2 h): 5.687 ± 1.540 % of injected dose per gram of tissue weight | Liver ([1]; 2 h): 5.807 ± 1.708 % of injected dose per gram of tissue weight | Lung ([1]; 2 h): 0.721 ± 0.210 % of injected dose per gram of tissue weight | Muscle ([1]; 2 h): 0.148 ± 0.039 % of injected dose per gram of tissue weight | Spleen ([1]; 2 h): 4.205 ± 1.374 % of injected dose per gram of tissue weight | Stomach ([1]; 2 h): 0.439 ± 0.138 % of injected dose per gram of tissue weight | Thyroid ([1]; 2 h): 0.665 ± 0.207 % of injected dose per gram of tissue weight | Tumor ([1]; 2 h): 0.415 ± 0.123 % of injected dose per gram of tissue weight | Blood ([1]; 4 h): 0.787 ± 0.152 % of injected dose per gram of tissue weight | Brain ([1]; 4 h): 0.042 ± 0.006 % of injected dose per gram of tissue weight | Heart ([1]; 4 h): 0.318 ± 0.071 % of injected dose per gram of tissue weight | Intestine ([1]; 4 h): 0.374 ± 0.073 % of injected dose per gram of tissue weight | Kidney ([1]; 4 h): 4.318 ± 0.890 % of injected dose per gram of tissue weight | Liver ([1]; 4 h): 6.656 ± 1.786 % of injected dose per gram of tissue weight | Lung ([1]; 4 h): 0.606 ± 0.128 % of injected dose per gram of tissue weight | Muscle ([1]; 4 h): 0.147 ± 0.022 % of injected dose per gram of tissue weight | Spleen ([1]; 4 h): 5.933 ± 3.194 % of injected dose per gram of tissue weight | Stomach ([1]; 4 h): 0.541 ± 0.119 % of injected dose per gram of tissue weight | Thyroid ([1]; 4 h): 0.692 ± 0.119 % of injected dose per gram of tissue weight | Tumor ([1]; 4 h): 0.414 ± 0.161 % of injected dose per gram of tissue weight | tumor-to-tissue ratios, ^99mTc-EC-DG versus 18F-FDG ([1]; A549 nude mice, iv): higher tumor/muscle and tumor/brain ratios as a function of time

BONE/MUSCLE ([3]; 30 min): 2.419 ± 0.225 | Tumor/Blood ([3]; 30 min): 0.255 ± 0.022 | Tumor/Muscle ([3]; 30 min): 4.375 ± 0.304 | UTERUS/BLOOD ([3]; 30 min): 0.259 ± 0.003 | UTERUS/MUSCLE ([3]; 30 min): 4.471 ± 0.257 | BONE/MUSCLE ([3]; 2 h): 3.058 ± 0.114 | Tumor/Blood ([3]; 2 h): 0.307 ± 0.018 | Tumor/Muscle ([3]; 2 h): 6.876 ± 0.704 | UTERUS/BLOOD ([3]; 2 h): 0.240 ± 0.021 | UTERUS/MUSCLE ([3]; 2 h): 5.442 ± 0.852 | BONE/MUSCLE ([3]; 4 h): 4.314 ± 0.739 | Tumor/Blood ([3]; 4 h): 0.395 ± 0.014 | Tumor/Muscle ([3]; 4 h): 9.715 ± 0.387 | UTERUS/BLOOD ([3]; 4 h): 0.255 ± 0.005 | UTERUS/MUSCLE ([3]; 4 h): 6.278 ± 0.199
Compound: Cc1ccc(-c2cc(C(F)(F)F)nn2-c2ccc(S(=O)(=O)NC(=O)NCC(=O)NCCNC(=O)C3C[S][99Tc]45(=[O])[S]CC(C(=O)O)[N]4CC[N]35)cc2)cc1 (centres unmarked) [^99mTc-EC-celecoxib]
tumor-to-tissue count density ratios ([3]; 0.5-4 hrs): increased tumor-to-tissue count density ratios as a function of time | BONE & JOINT ([3]; 30 min): 0.324 ± 0.036 % of injected dose per gram of tissue weight | Blood ([3]; 30 min): 2.293 ± 0.038 % of injected dose per gram of tissue weight | Heart ([3]; 30 min): 0.475 ± 0.025 % of injected dose per gram of tissue weight | Intestine ([3]; 30 min): 0.406 ± 0.039 % of injected dose per gram of tissue weight | Kidney ([3]; 30 min): 4.963 ± 0.147 % of injected dose per gram of tissue weight | Liver ([3]; 30 min): 1.556 ± 0.046 % of injected dose per gram of tissue weight | Lung ([3]; 30 min): 1.033 ± 0.035 % of injected dose per gram of tissue weight | Muscle ([3]; 30 min): 0.133 ± 0.007 % of injected dose per gram of tissue weight | Spleen ([3]; 30 min): 0.594 ± 0.298 % of injected dose per gram of tissue weight | Stomach ([3]; 30 min): 0.370 ± 0.010 % of injected dose per gram of tissue weight | Thyroid ([3]; 30 min): 0.784 ± 0.090 % of injected dose per gram of tissue weight | Tumor ([3]; 30 min): 0.587 ± 0.062 % of injected dose per gram of tissue weight | UTERUS ([3]; 30 min): 0.595 ± 0.003 % of injected dose per gram of tissue weight | BONE & JOINT ([3]; 2 h): 0.190 ± 0.003 % of injected dose per gram of tissue weight | Blood ([3]; 2 h): 1.388 ± 0.063 % of injected dose per gram of tissue weight | Heart ([3]; 2 h): 0.283 ± 0.017 % of injected dose per gram of tissue weight | Intestine ([3]; 2 h): 0.276 ± 0.061 % of injected dose per gram of tissue weight | Kidney ([3]; 2 h): 6.088 ± 0.305 % of injected dose per gram of tissue weight | Liver ([3]; 2 h): 1.461 ± 0.049 % of injected dose per gram of tissue weight | Lung ([3]; 2 h): 0.712 ± 0.098 % of injected dose per gram of tissue weight | Muscle ([3]; 2 h): 0.062 ± 0.003 % of injected dose per gram of tissue weight | Spleen ([3]; 2 h): 0.965 ± 0.056 % of injected dose per gram of tissue weight | Stomach ([3]; 2 h): 0.187 ± 0.004 % of injected dose per gram of tissue weight | Thyroid ([3]; 2 h): 0.449 ± 0.015 % of injected dose per gram of tissue weight | Tumor ([3]; 2 h): 0.424 ± 0.019 % of injected dose per gram of tissue weight | UTERUS ([3]; 2 h): 0.334 ± 0.034 % of injected dose per gram of tissue weight | BONE & JOINT ([3]; 4 h): 0.178 ± 0.022 % of injected dose per gram of tissue weight | Blood ([3]; 4 h): 1.031 ± 0.033 % of injected dose per gram of tissue weight | Heart ([3]; 4 h): 0.224 ± 0.004 % of injected dose per gram of tissue weight | Intestine ([3]; 4 h): 0.190 ± 0.006 % of injected dose per gram of tissue weight | Kidney ([3]; 4 h): 6.363 ± 0.260 % of injected dose per gram of tissue weight | Liver ([3]; 4 h): 1.506 ± 0.080 % of injected dose per gram of tissue weight | Lung ([3]; 4 h): 0.500 ± 0.011 % of injected dose per gram of tissue weight | Muscle ([3]; 4 h): 0.002 ± 0.004 % of injected dose per gram of tissue weight | Spleen ([3]; 4 h): 0.981 ± 0.041 % of injected dose per gram of tissue weight | Stomach ([3]; 4 h): 0.139 ± 0.004 % of injected dose per gram of tissue weight | Thyroid ([3]; 4 h): 0.372 ± 0.021 % of injected dose per gram of tissue weight | Tumor ([3]; 4 h): 0.406 ± 0.004 % of injected dose per gram of tissue weight | UTERUS ([3]; 4 h): 0.263 ± 0.005 % of injected dose per gram of tissue weight | cellular uptake compared to ^99mTc-EC [4]: significant increase in uptake

Compound: ^99mTc-EC-LHRH (QHWSYGLRPG; also: 99mTc-ethylenedicysteine label, site not given here; UniProt P01148 24-33, looked up)
cellular uptake compared to ^99mTc-EC [5]: significant increased uptake
